According to US7973219B2, “Method for producing transgenic plants resistant to weed control compounds which disrupt the porphyrin pathways of plants” (Sumitomo Chemical Company, Limited, priority 1998, dated 2011):
Where two headings read alike, the source gives them in different places.

How the values were obtained:
[1] = system: E. coli BT3/pACYCSP+pHEMF strain; experiment: Growth of E. coli BT3/pACYCSP+pHEMF (E. coli hemF) with herbicidal compound; assay type: cell-based, Escherichia coli; settings: 18 hours culture, Table 14
Text: (§1) According to the description of Gibson, L. C. D. et al., Proc. Natl. Acad. Sci. USA, 92; p 1941 (1995), the DNA fragment containing bchH gene prepared in Example 1 was digested with the restriction enzymes NdeI and BglII. The resultant DNA fragment was inserted between NdeI restriction site and BamHI restriction site of expression vector pET11a (manufactured by Stratagene) to obtain plasmid pETBCH (FIG. 1). This plasmid pETBCH was introduced into E. coli BL21(DE3) strain competent cells (manufactured by Stratagene) according to the manual attached to the competent cells to obtain E. coli BL21(DE3)/pETBCH strain. The strain was inoculated into 1.5 ml LB liquid culture medium (1% tryptone, 0.5% yeast extract, 0.5% NaCl) containing 100 μg/ml ampicillin in a tube (14×10 mm), and the tube was covered with aluminum foil (hereinafter referred to as dark conditions), cultured with shaking at 37° C. under light of fluorescent lamp (about 8000 lux). When the absorbance at 600 nm of the liquid culture medium became about 0.6, isopropyl β-D-thiogalactopyranoside (IPTG) was added to the liquid culture medium so that the final concentration was 0.4 mM, and the culture was continued for about additional 20 hours. […] In contrast to this, when E. coli BL21(DE3)/pETBCH strain was cultured according to the same manner (with IPTG) except that the tube was not covered with aluminum foil (hereinafter referred to as light conditions), E. coli grew and turned red as above.
The DNA fragment containing hemF gene amplified by the method described in Example 26 was digested with restriction enzymes FbaI and PstI, and inserted between BamHI restriction site and PstI restriction site of commercially available plasmid […] (manufactured by Takara Shuzo Co., Ltd.) to construct plasmid pHEMF (FIG. 16).
The plasmid pHEMF and pTV118N were introduced into E. coli BT3/pACYCSP strain prepared in Example 3 respectively according to the method described in Hanahan, D. J., Mol. Biol., 166; p 557 (1983). […]
(§2) These E. coli strains were inoculated into YPT medium containing 10 or 1 ppm of the PPO inhibitory-type herbicidal compound represented by Structure 8, 100 μg/ml ampicillin, 15 μg/ml chloramphenicol, 10 μg/ml kanamycin, 10 μg/ml hemin and 50 μg/ml aminolevulinic acid, cultured under dark conditions or light conditions according to the same manner as in Example 2. Then, 18 hours after initiation of culture, the absorbance of liquid culture medium was measured at 600 nm. By taking the absorbance of the medium without the herbicidal compound as I, the relative value of the absorbance of the medium containing the herbicidal compound was calculated.

[2] = system: E. coli BT3/pACYCSP+pTV118N strain; experiment: Growth of E. coli BT3/pACYCSP+pTV118N (vector control) with herbicidal compound; assay type: cell-based; settings: Escherichia coli, 18 h, 18 hours culture
Text: as §1
Plasmids pTVBCH and pTV118N respectively were introduced into E. coli BT3/pACYCSP strain prepared in Example 3 according to the method described in Hanahan, D. J., Mol. Biol., 166; p 557 (1983). The resultant E. coli were cultured in YPT medium containing 100 μg/ml ampicillin, 15 μg/ml chloramphenicol and 10 μg/ml kanamycin to obtain E. coli BT3/pACYCSP+pTVBCH strain bearing plasmids pACYCSP and pTVBCH, and E. coli BT3/pACYCSP+pTV118N strain bearing plasmids pACYCSP and pTV118N.
as §2, with “These strains were” for “These E. coli strains were”, “represented by the above Structure 8,” for “represented by Structure 8,”, “absorbance of the liquid culture” for “absorbance of liquid culture”, “compound as 1, the relative” for “compound as I, the relative”
Further, these strains were inoculated into YPT medium containing PPO inhibitory-type herbicidal compounds represented by the above Structures 1, 14, 15, 18-22, 29, 32, 33, 34 and 36, respectively, 100 μg/ml ampicillin, 15 μg/ml chloramphenicol, 10 μg/ml kanamycin, 10 μg/ml hemin and 50 μg/ml aminolevulinic acid, cultured under dark conditions or light conditions similar to the Example 2. Then, 18 hours after initiation of culture, the absorbance of liquid culture medium was measured at 600 nm. By taking the absorbance of the medium without the herbicidal compound as 1, the relative value of the absorbance of the medium containing the herbicidal compound was calculated.
Plasmids pTVGMP and pTV118N prepared in Example 11 were introduced into E. coli BT3/pACYCSP strain prepared in Example 3 respectively according to the method described in Flanahan, D. J., Mol. Biol., 166; p 557 (1983). E. coli BT3/pACYCSP+pTVGMP strain bearing plasmids pACYCSP and pTVGMP, and E. coli BT3/pACYCSP+pTV118N strain bearing plasmids pACYCSP and pTV118N were obtained by culturing the above strains in YPT medium containing 100 μg/ml ampicillin, 15 μg/ml chloramphenicol and 10 μg/ml kanamycin. […]

[3] = read-out: Relative absorbance, in the dark, Table 2
[4] = read-out: Relative absorbance, in the dark, Table 7 (Example 12)
[5] = read-out: Relative absorbance, in the dark, Table 9 (Example 17)
[6] = read-out: Relative absorbance, in the dark, Table 11 (Example 20)
[7] = read-out: Relative absorbance, in the dark, Table 13 (Example 23)
[8] = read-out: Relative absorbance, in the dark, Table 14 (Example 27)
[9] = read-out: Relative absorbance, in the light, Table 2
[10] = read-out: Relative absorbance, in the light, Table 7 (Example 12)
[11] = read-out: Relative absorbance, in the light, Table 9 (Example 17)
[12] = read-out: Relative absorbance, in the light, Table 11 (Example 20)
[13] = read-out: Relative absorbance, in the light, Table 13 (Example 23)
[14] = read-out: Relative absorbance, in the light, Table 14 (Example 27)

Q: What does the source list for C#CCOc1cc(N2C(=O)C3=C(CCCC3)C2=O)c(F)cc1Cl [Structure 8]?
A: Relative absorbance ([1]; in the dark, 1 ppm): 0.95; Relative absorbance ([1]; in the dark, 10 ppm): 0.94; Relative absorbance ([1]; in the light, 1 ppm): 1.0; Relative absorbance ([1]; in the light, 10 ppm): 0.48; activity at 1 ppm [2, 3]: 77%; activity at 1 ppm [2, 4]: 91%; activity at 1 ppm [2, 5]: 91%; activity at 1 ppm [2, 6]: 91%; activity at 1 ppm [2, 7]: 91%; activity at 1 ppm [2, 8]: 98%; activity at 1 ppm ([2]; read-out: Relative absorbance, in the dark, Table 15 (Example 31)): 93%; activity at 1 ppm ([2]; read-out: Relative absorbance, in the dark, Table 16 (Example 31)): 81%; activity at 10 ppm [2, 3]: 68%; activity at 10 ppm [2, 4]: 89%; activity at 10 ppm [2, 5]: 80%; activity at 10 ppm [2, 6]: 80%; activity at 10 ppm [2, 7]: 81%; activity at 10 ppm [2, 8]: 96%; activity at 1 ppm [2, 9]: 31%; activity at 1 ppm [2, 10]: 9%; activity at 1 ppm [2, 11]: 24%; activity at 1 ppm [2, 12]: 24%; activity at 1 ppm [2, 13]: 8%; activity at 1 ppm [2, 14]: 16%; activity at 1 ppm ([2]; read-out: Relative absorbance, in the light, Table 15 (Example 31)): 7%; activity at 1 ppm ([2]; read-out: Relative absorbance, in the light, Table 16 (Example 31)): 15%; activity at 10 ppm [2, 9]: 18%; activity at 10 ppm [2, 10]: 5%; activity at 10 ppm [2, 11]: 12%; activity at 10 ppm [2, 12]: 12%; activity at 10 ppm [2, 13]: 6%; activity at 10 ppm [2, 14]: 6%
